Results published in the NIST ThermoML archive (doi:10.1021/je700260f).

Settings: 323.14 K, Liquid, Vibrating tube method

FC(C(F)(F)F)C(F)(F)F [1,1,1,2,3,3,3-heptafluoropropane]
Settings	mass density [kg/m3]
1040 kPa	1273.4
1060 kPa	1273.7
1070 kPa	1274.1
1090 kPa	1274.2
1110 kPa	1274.5
1130 kPa	1274.7
1140 kPa	1275.1
1170 kPa	1275.4
1180 kPa	1275.5
1200 kPa	1275.9
1220 kPa	1276
1240 kPa	1276.4
1260 kPa	1276.7
1290 kPa	1276.9
1330 kPa	1277.6
1350 kPa	1277.8
1370 kPa	1278.2
1390 kPa	1278.3
1410 kPa	1278.7
1420 kPa	1278.8
1450 kPa	1279.2
1470 kPa	1279.6
1500 kPa	1279.9
1520 kPa	1280.1
1550 kPa	1280.6
1580 kPa	1281.1
1610 kPa	1281.4
1630 kPa	1281.6
1640 kPa	1282
1670 kPa	1282.1
1690 kPa	1282.5
1710 kPa	1282.7
1730 kPa	1283.1
1750 kPa	1283.3
1780 kPa	1283.7
1860 kPa	1284.7
1880 kPa	1285
1900 kPa	1285.3
1920 kPa	1285.4
1940 kPa	1285.8
1960 kPa	1285.9
1980 kPa	1286.3
2000 kPa	1286.6
2020 kPa	1286.8
2290 kPa	1290.2
2310 kPa	1290.6
2330 kPa	1290.7
2350 kPa	1291
2380 kPa	1291.3
2390 kPa	1291.5
2410 kPa	1291.7
2430 kPa	1291.9
2450 kPa	1292.3
2480 kPa	1292.4
2500 kPa	1292.9
2530 kPa	1293.2
2560 kPa	1293.6
2570 kPa	1293.8
2600 kPa	1294
2610 kPa	1294.3
2630 kPa	1294.4
2650 kPa	1294.8
2670 kPa	1295
2830 kPa	1296.9
2890 kPa	1297.6
2920 kPa	1297.7
2940 kPa	1298.3
2960 kPa	1298.4
2980 kPa	1298.6
3060 kPa	1299.4
3310 kPa	1302.4
3340 kPa	1302.7
3360 kPa	1303
3380 kPa	1303.3
3410 kPa	1303.5
3440 kPa	1303.9
3470 kPa	1304.1
3480 kPa	1304.3
3510 kPa	1304.5
3530 kPa	1304.8
3550 kPa	1305
3570 kPa	1305.4
3600 kPa	1305.5
3640 kPa	1306.1
3660 kPa	1306.3
3680 kPa	1306.5
3700 kPa	1306.7
3720 kPa	1307
3750 kPa	1307.2
3770 kPa	1307.5
3790 kPa	1307.7
3810 kPa	1308
3840 kPa	1308.2
3860 kPa	1308.5
3880 kPa	1308.7
3900 kPa	1309
3920 kPa	1309.1
3950 kPa	1309.4
3970 kPa	1309.8
4000 kPa	1309.9
4020 kPa	1310.2
4040 kPa	1310.3
4070 kPa	1310.7
